The pIC50 is −log10 of the IC50, conventionally taken in molar units.

pIC50: −log10 of the molar value. Where “and” joins values, the source holds several entries; their conditions need not be identical. Equal values may be shown once.

In the first experiment the target is T1, Human ATX protein (Homo sapiens, UniProt Q13822).
T1 construct: made in house
Put plainly: ATX biochemical assay (FRET, FS-3 substrate). Particulars: FRET assay, FS-3 2 μM, ATX 1.0 μg/mL, 30 minutes preincubation, 2 hours reaction at room temperature; read-out: IC50. The essentials: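 In-house human ATX (1.0 μg/mL final) was preincubated with compound for 30 min at room temperature in Tris buffer pH 7.4 with 1 mg/mL fatty acid free-BSA. FS-3 substrate (2 μM final) was then hydrolysed for 2 hours at room temperature, protected from light, and read as fluorescence at ex 485/em 538 nm.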
Turning to `O=C(C[C@H]1CC[C@@H](C(=O)O)CC1)N1CCc2c(C(F)(F)F)nn(Cc3ccc(F)cc3)c2C1` [Example 7-2, cis-4-(2-(1-(4-fluorobenzyl)-3-(trifluoromethyl)-4,5-dihydro-1H-pyrazolo[3,4-c]pyridin-6(7H)-yl)-2-oxoethyl)cyclohexanecarboxylic acid], the pIC50 is at least 7.00.
Same read-out and setting: the figure for `O=C(C[C@H]1CC[C@H](C(=O)O)CC1)N1CCc2cnn(Cc3ccc(Cl)cc3F)c2C1` [Example 7-3, trans-4-(2-(1-(4-Chloro-2-fluorobenzyl)-4,5-dihydro-1H-pyrazolo[3,4-c]pyridin-6(7H)-yl)-2-oxoethyl)cyclohexanecarboxylic acid] is at least 7.00.
As for `O=C(C[C@H]1CC[C@@H](C(=O)O)CC1)N1CCc2cnn(Cc3ccc(Cl)cc3F)c2C1` [Example 7-4, cis-4-(2-(1-(4-chloro-2-fluorobenzyl)-4,5-dihydro-1H-pyrazolo[3,4-c]pyridin-6(7H)-yl)-2-oxoethyl)cyclohexanecarboxylic acid], the pIC50 is at least 7.00.
As for `O=C(C[C@H]1CC[C@@H](C(=O)O)CC1)N1CCc2c(C(F)(F)F)nn(Cc3ccc(Cl)cc3)c2C1` [Example 7-6, cis-4-(2-(1-(4-chlorobenzyl)-3-(trifluoromethyl)-4,5-dihydro-1H-pyrazolo[3,4-c]pyridin-6(7H)-yl)-2-oxoethyl)cyclohexanecarboxylic acid], the pIC50 is at least 7.00.
`O=C(C[C@H]1CC[C@H](C(=O)O)CC1)N1CCc2c(C(F)(F)F)nn(Cc3ccc(Cl)cc3Cl)c2C1` [Example 7-7, trans-4-(2-(1-(2,4-Dichlorobenzyl)-3-(trifluoromethyl)-4,5-dihydro-1H-pyrazolo[3,4-c]pyridin-6(7H)-yl)-2-oxoethyl)cyclohexanecarboxylic acid]: the negative logarithm of the IC50 (pIC50) was at least 7.00.
Consider `O=C(C[C@H]1CC[C@@H](C(=O)O)CC1)N1CCc2c(C(F)(F)F)nn(Cc3ccc(Cl)cc3Cl)c2C1` [Example 7-8, cis-4-(2-(1-(2,4-dichlorobenzyl)-3-(trifluoromethyl)-4,5-dihydro-1H-pyrazolo[3,4-c]pyridin-6(7H)-yl)-2-oxoethyl)cyclohexanecarboxylic acid], for which the negative-log IC50 (pIC50) is at least 7.00.
For `O=C(O[C@H]1CC[C@@H](C(=O)O)CC1)N1CCc2c(C(F)(F)F)nn(Cc3ccc(Cl)cc3F)c2C1` [Example 7-9, cis-4-((1-(4-Chloro-2-fluorobenzyl)-3-(trifluoromethyl)-4,5,6,7-tetrahydro-1H-pyrazolo[3,4-c]pyridine-6-carbonyl)oxy)cyclohexanecarboxylic acid], the negative logarithm of the IC50 (pIC50) was at least 7.00.
For the molecule `O=C(O[C@H]1CC[C@H](C(=O)O)CC1)N1CCc2c(C(F)(F)F)nn(Cc3ccc(Cl)cc3F)c2C1` [Example 7-10, trans-4-((1-(4-chloro-2-fluorobenzyl)-3-(trifluoromethyl)-4,5,6,7-tetrahydro-1H-pyrazolo[3,4-c]pyridine-6-carbonyl)oxy)cyclohexanecarboxylic acid], the pIC50 is at least 7.00.
Still for that read-out and setting: the figure for `O=C(C[C@H]1CC[C@H](C(=O)O)CC1)N1CCc2c(C(F)(F)F)nn(Cc3ccccc3)c2C1` [Example 7-11, trans-4-(2-(1-Benzyl-3-(trifluoromethyl)-4,5-dihydro-1H-pyrazolo[3,4-c]pyridin-6(7H)-yl)-2-oxoethyl)cyclohexanecarboxylic acid] is at least 7.00; for `O=C(C[C@H]1CC[C@@H](C(=O)O)CC1)N1CCc2c(C(F)(F)F)nn(Cc3ccccc3)c2C1` [Example 7-12, cis-4-(2-(1-benzyl-3-(trifluoromethyl)-4,5-dihydro-1H-pyrazolo[3,4-c]pyridin-6(7H)-yl)-2-oxoethyl)cyclohexanecarboxylic acid] it is at least 7.00.
On the same count and under the same terms, under `O=C(O)[C@H]1CC[C@H](C(=O)N2CCc3c(C(F)(F)F)nn(Cc4ccc(F)cc4)c3C2)CC1` [Example 7-17, trans-4-(1-(4-Fluorobenzyl)-3-(trifluoromethyl)-4,5,6,7-tetrahydro-1H-pyrazolo[3,4-c]pyridine-6-carbonyl)cyclohexanecarboxylic acid] stands at least 7.00.
As to `O=C(O)[C@H]1CC[C@@H](C(=O)N2CCc3c(C(F)(F)F)nn(Cc4ccc(F)cc4)c3C2)CC1` [Example 7-18, cis-4-(1-(4-fluorobenzyl)-3-(trifluoromethyl)-4,5,6,7-tetrahydro-1H-pyrazolo[3,4-c]pyridine-6-carbonyl)cyclohexanecarboxylic acid], the negative logarithm of the IC50 (pIC50) is at least 7.00.
Same read-out and setting: the figure for `O=C(C[C@H]1CC[C@H](C(=O)O)CC1)N1CCc2c(C(F)(F)F)nn(C3CCCCC3)c2C1` [Example 7-19, trans-4-(2-(1-cyclohexyl-3-(trifluoromethyl)-4,5-dihydro-1H-pyrazolo[3,4-c]pyridin-6(7H)-yl)-2-oxoethyl)cyclohexanecarboxylic acid] is < 6.30 and ≥ 5.00.
On to `O=C(C[C@H]1CC[C@@H](C(=O)O)CC1)N1CCc2c(C(F)(F)F)nn(C3CCCCC3)c2C1` [Example 7-20, cis-4-(2-(1-cyclohexyl-3-(trifluoromethyl)-4,5-dihydro-1H-pyrazolo[3,4-c]pyridin-6(7H)-yl)-2-oxoethyl)cyclohexanecarboxylic acid], for which the negative-log IC50 (pIC50) was < 6.30 and ≥ 5.00.
On to `O=C(C[C@H]1CC[C@@H](C(=O)O)CC1)N1CCc2c(C(F)(F)F)nn(CCC3CCCCC3)c2C1` [Example 7-21, cis-4-(2-(1-(2-Cyclohexylethyl)-3-(trifluoromethyl)-4,5-dihydro-1H-pyrazolo[3,4-c]pyridin-6(7H)-yl)-2-oxoethyl)cyclohexanecarboxylic acid], for which the pIC50 is at least 7.00.
Same read-out and setting: under `O=C(C[C@H]1CC[C@H](C(=O)O)CC1)N1CCc2c(C(F)(F)F)nn(CCC3CCCCC3)c2C1` [Example 7-22, trans-4-(2-(1-(2-cyclohexylethyl)-3-(trifluoromethyl)-4,5-dihydro-1H-pyrazolo[3,4-c]pyridin-6(7H)-yl)-2-oxoethyl)cyclohexanecarboxylic acid] stands at least 7.00.
`C[C@]1(C(=O)O)C[C@@H](CC(=O)N2CCc3c(C(F)(F)F)nn(Cc4ccc(F)cc4)c3C2)C1` [Example 7-23, cis-3-(2-(1-(4-Fluorobenzyl)-3-(trifluoromethyl)-4,5-dihydro-1H-pyrazolo[3,4-c]pyridin-6(7H)-yl)-2-oxoethyl)-1-methylcyclobutanecarboxylic acid]: the negative logarithm of the IC50 (pIC50) was at least 7.00.
On the same count and under the same terms, the figure for `C[C@]1(C(=O)O)CC[C@@H](CC(=O)N2CCc3c(C(F)(F)F)nn(Cc4ccc(F)cc4)c3C2)CC1` [Example 7-25, cis-4-(2-(1-(4-fluorobenzyl)-3-(trifluoromethyl)-4,5-dihydro-1H-pyrazolo[3,4-c]pyridin-6(7H)-yl)-2-oxoethyl)-1-methylcyclohexanecarboxylic acid] is at least 7.00; for `CC(C)(C)OC(=O)N1CCC(CC(=O)N2CCc3c(C(F)(F)F)nn(Cc4ccc(Cl)cc4F)c3C2)CC1` [Example 8-2, tert-Butyl 4-(2-(1-(4-chloro-2-fluorobenzyl)-3-(trifluoromethyl)-4,5-dihydro-1H-pyrazolo[3,4-c]pyridin-6(7H)-yl)-2-oxoethyl)piperidine-1-carboxylate] it is at least 7.00; for `CC(C)(C)OC(=O)N1CC(CC(=O)N2CCc3c(C(F)(F)F)nn(Cc4ccc(Cl)cc4F)c3C2)C1` [Example 8-3, tert-Butyl 3-(2-(1-(4-chloro-2-fluorobenzyl)-3-(trifluoromethyl)-4,5-dihydro-1H-pyrazolo[3,4-c]pyridin-6(7H)-yl)-2-oxoethyl)azetidine-1-carboxylate] it is at least 7.00.
In the case of `CC(C)(C)OC(=O)N1CCCC(CC(=O)N2CCc3c(C(F)(F)F)nn(Cc4ccc(F)cc4)c3C2)C1` (centres unmarked) [Example 8-4, tert-Butyl 3-(2-(1-(4-fluorobenzyl)-3-(trifluoromethyl)-4,5-dihydro-1H-pyrazolo[3,4-c]pyridin-6(7H)-yl)-2-oxoethyl)piperidine-1-carboxylate], the pIC50 was at least 7.00.
Still for that read-out and setting: under `CC1CC(CC(=O)N2CCc3c(C(F)(F)F)nn(Cc4ccc(Cl)cc4F)c3C2)CCN1C(=O)OC(C)(C)C` (centres unmarked) [Example 8-5, tert-Butyl 4-(2-(1-(4-chloro-2-fluorobenzyl)-3-(trifluoromethyl)-4,5-dihydro-1H-pyrazolo[3,4-c]pyridin-6(7H)-yl)-2-oxoethyl)-2-methylpiperidine-1-carboxylate] stands at least 7.00.
On the same count and under the same terms, the figure for `CC(C)(C)OC(=O)N1CCC(CC(=O)N2CCc3c(C(F)(F)F)nn(Cc4ccc(Cl)cc4F)c3C2)CC1(C)C` (centres unmarked) [Example 8-6, tert-Butyl 4-(2-(1-(4-chloro-2-fluorobenzyl)-3-(trifluoromethyl)-4,5-dihydro-1H-pyrazolo[3,4-c]pyridin-6(7H)-yl)-2-oxoethyl)-2,2-dimethylpiperidine-1-carboxylate] is at least 7.00; for `CC(C)(C)OC(=O)N1CCC(CC(=O)N2CCc3c(C(F)(F)F)nn(Cc4ccc(Cl)cc4F)c3C2)CC1C(F)(F)F` (centres unmarked) [Example 8-7, tert-Butyl 4-(2-(1-(4-chloro-2-fluorobenzyl)-3-(trifluoromethyl)-4,5-dihydro-1H-pyrazolo[3,4-c]pyridin-6(7H)-yl)-2-oxoethyl)-2-(trifluoromethyl)piperidine-1-carboxylate] it is at least 7.00; for `CCC1CC(CC(=O)N2CCc3c(C(F)(F)F)nn(Cc4ccc(F)cc4)c3C2)CCN1C(=O)OC(C)(C)C` (centres unmarked) [Example 8-8, tert-Butyl 2-ethyl-4-(2-(1-(4-fluorobenzyl)-3-(trifluoromethyl)-4,5-dihydro-1H-pyrazolo[3,4-c]pyridin-6(7H)-yl)-2-oxoethyl)piperidine-1-carboxylate] it is at least 7.00.

Still in this experiment, the particulars now being: IC50, FRET assay, FS-3 2 μM, ATX 1.0 μg/mL, 30 minutes preincubation, 2 hours reaction at room temperature.
Regarding `CC(C)(C)OC(=O)N1C2CCC1CC(CC(=O)N1CCc3c(C(F)(F)F)nn(Cc4ccc(Cl)cc4F)c3C1)C2` (centres unmarked) [Example 8-1, tert-Butyl 3-(2-(1-(4-chloro-2-fluorobenzyl)-3-(trifluoromethyl)-4,5-dihydro-1H-pyrazolo[3,4-c]pyridin-6(7H)-yl)-2-oxoethyl)-8-azabicyclo[3.2.1]octane-8-carboxylate], the negative-log IC50 (pIC50) is at least 7.00.

The values above are taken from US10144732B2 (BIOGEN MA INC., priority 2014, dated 2018).
